Several values for one entry are separate records, joined by “and”; a condition that tells them apart may be missing. Equal values may be shown once.
Key:
[1] = Light exposure of dried metaflumizone formulation with UV absorber (Atlas Suntest, seven days), residual content by UPLC; format: physicochemical; settings: 100 g/l metaflumizone, 40 g/l UV absorber, exposed to light seven days, unexposed blank = 100%
Method: A formulation comprising 100 g/l of metaflumizone and 40 g/l of UV absorber was prepared by two different methods: a) Wet grinding with subsequent addition of UV absorber as in Example 9. b) Wet grinding with UV absorber as in Example 8. About 20 mg of the mixture prepared in this way were applied to a microscope slide, allowed to dry on for 30 minutes and exposed to light continuously for seven days (Atlas Suntest CRT plus, “Outdoor” setting, exposure to light corresponds to the same spectrum and intensity as normal sunlight at midday in summer). After the exposure time, the samples were dissolved in dimethylsulfoxide. […] For comparison, a sample without UV absorber was also allowed to run (reference) in each exposure series. Evaluation: 2 samples were dissolved again as blank samples immediately after the drying on, without exposure to light, and the content of metaflumizone was determined. The resulting mean was set at 100% and the remaining samples were standardized against this.

[2] = Determination of the surface tension of the UV absorbers; format: physicochemical; settings: 25° C.; UV absorber concentrations from about 1 mg/l to 5,000 mg/l; water to air
Method: The surface tension (ST) of the UV absorbers was determined at 25° C. at concentrations of the UV absorber of from about 1 mg/l to 5,000 mg/l. The ST of water to air is, for comparison, 72.4 mN/m, the ST of commercial surfactants is about 30-35 mN/m.

[3] = formulation by method a) (wet grinding, subsequent addition of UV absorber)

Compound	Residual content of metaflumizone (%) [1, 3]	ST [mN/m] (surface tension) [2]	Residual content of metaflumizone (%) ([1]; formulation by method b) (wet grinding with UV absorber))
2,4,6-trianilino-p-(carboxy-[Pluriol A500E]-yl)-1,3,5-triazine [Example 4B]	77.5%	–	–
2-cyano-3,3-diphenyl-acrylic acid [Pluriol A500E] ester [Example 2B]	76.7%	–	–
2-cyano-3,3-diphenylacrylic acid [EO-tridecanol]ester [Example 2D]	–	33.9	–
3,6,9,12-tetraoxatridecylcinnamic acid amide [Example 6A]	74.7%	–	–
COCCOCCOCCOCCOCCOCCOCCOC(=O)C(C#N)=C(c1ccccc1)c1ccccc1 [Example 2A, 2-cyano-3,3-diphenyl-acrylic acid [Pluriol A350E] ester]	87.1%	43.1	–
COCCOCCOCCOCCOCCOCCOCCOC(=O)COc1ccc(C(=O)c2ccccc2)c(O)c1 [Example 3B, (4-benzoyl-3-hydroxy-phenoxy)-acetic acid [Pluriol A350E] ester]	85.9% and 83.2%	45.7	82.8
COCCOCCOCCOCCOC(=O)C=Cc1ccccc1 [Example 6B, cinnamic acid 3,6,9,12-tetraoxatridecyl ester]	66.5%	–	–
p-Aminobenzoic acid ethoxylate [Uvinul P25, reference compound]	53.3%	–	–

Source: US20110237665A1, “Agrochemical Composition Comprising Pesticide and UV Absorber” (BASF SE, priority 2008, published 2011)
